pEC50, pIC50: −log10 of the molar value.
Tests used:
[1] = target: CKIδ wild type (Homo sapiens, UniProt P48730); assay: CK1δ kinase assay (Kinase-Glo); type: biochemical; details: 10 μM ATP, 2 nM CKIδ, 85 min at 25° C.; read-out: CK1 δ IC50
Protocol: (§1) The CK1δ kinase assay was performed in a 40 μl final volume in buffer containing 50 mM Tris, pH 7.5, 10 mM MgCl2, 1 mM dithiothreitol, 100 μg/mL BSA with 10 μM ATP, 2 nM CKIδ wild type, and 42 μM peptide substrate PLSRTLp[…] (Flotow et al., 1990) in the presence of 1 μl of CKIδ inhibitor or 4% DMSO. The reaction was incubated for 85 min at 25° C.; detection was carried out as described for the Kinase-Glo Assay (Promega). Luminescent output was measured on the Perkin Elmer Envision plate reader (PerkinElmer, Waltham, Mass.).

[2] = target: T1, human CK1δ (Cos 7 cells cotransfected with mouse Per3-GFP) (Homo sapiens, UniProt P48730); assay: CK1 WCA HCS nuclear translocation assay (CK1δ); type: cell-based; details: inhibition of mPer3-GFP translocation to the nucleus, overnight exposure, read-out: CK1 δ WCA EC50
T1 construct: His tag of the vector pcDNA4/hisA (only the vector name is printed); expressed in transfected cells; host or cells: Cos 7 cells
Protocol: (§2) CK1 WCA HCS Nuclear Translocation Assay.
(§3) Cos 7 cells were maintained at 37° C. in 5% CO2 in Dulbecco's Modified Eagle Medium (Gibco 11995) supplemented with 10% fetal bovine serum. Log-phase cells were dislodged with 5 min treatment of TrypLE Express (Gibco 12605) and viable cell count was determined with Cedex cell counter. Cells were diluted in DMEM medium to a density of 1.5e5 viable cells/mL in ⅔ of the final volume of final transfected cell mix. Cells were cotransfected with two plasmid DNAs, mouse Per3-GFP (green fluorescent protein) in pd2EGFP-N1 vector and human CKI in pcDNA4/hisA vector (for CK1Epsilon at a ratio of 1:5 respectively; for CK1δ at a ratio of 1:11 respectively), using Lipofectamine 2000 reagent (Invitrogen) according to the manufacturer's recommendations. The transfection mix contained approximately 0.83 μg/mL of DNA and 6 μL/mL of Lipofectamine 2000, in a total of ⅓ of the final transfection volume in Opti-MEM I medium (Invitrogen). After 20 min at rt, the cell mix was combined with the DNA transfection mix, per manufacturer instructions. 50 μL of the transfected cell suspension was dispensed per well by multidrop dispenser into Greiner 384-well Cellcoat (PDL) plates (Greiner #781946).
(§4) Compounds were solubilized in 100% DMSO, diluted with Opti-MEM I to a 4× concentration before addition to plated cells. After overnight exposure at 37° C. in a CO2 incubator, cells were fixed by the addition of 12% paraformaldehyde (Electron Microscopy Sciences, Hatfield, Pa.) in phosphate-buffered saline (PBS) with 20% sucrose to a final concentration of 4%, and then the cells were incubated for 30 min at rt. Fixative was removed, and cells were washed with PBS and then stained with 0.4 μg/ml Hoechst dye (Invitrogen) in blocking buffer containing 4% goat serum (Vector Labs s-1000) and 0.1% TritonX (Sigma T8787) for 1 h. Cells were washed again with PBS and stored at 4° C. in PBS or scanned immediately with the Cellomics ArrayScan VTI. CKIδ dependent nuclear localization of the GFP-tagged mPer3 protein was quantitated using the Cellomics ArrayScan VTI system utilizing the Cytoplasm to Nucleus translocation bioapplication to calculate the Nuclear-Cytoplasmic Intensity difference. Inhibitors of CK1 δ/ε were tested across a dose response curve to evaluate their ability to inhibit mPer3-GFP translocation to the nucleus. Cells with a total intensity of mPER3:GFP expression equal to or greater than 20,000 are included in analysis.

[3] = target: CKI ε wild type (Homo sapiens, UniProt P49674); assay: CK1ε kinase assay (Kinase-Glo); type: biochemical; details: 10 μM ATP, 2.5 nM CKI ε, 70 min at 25° C.; read-out: CK1 ε:IC50
Protocol: as §1, with “The CK1ε” for “The CK1δ”, “a 40-μl” for “a 40 μl”, “ATP, 2.5” for “ATP, 2”, “nM CKI ε” for “nM CKIδ”, “of CKI ε” for “of CKIδ”, “for 70” for “for 85”

[4] = target: T2, human CK1Epsilon (Cos 7 cells cotransfected with mouse Per3-GFP) (Homo sapiens, UniProt P49674); assay: CK1 WCA HCS nuclear translocation assay (CK1ε); type: cell-based; details: inhibition of mPer3-GFP translocation to the nucleus, overnight exposure, read-out: CK1 ε WCA EC50
T2 construct: His tag of the vector pcDNA4/hisA (only the vector name is printed); expressed in transfected cells; host or cells: Cos 7 cells
Protocol: as §2, §3, §4

T2 sequence (P49674 whole entry): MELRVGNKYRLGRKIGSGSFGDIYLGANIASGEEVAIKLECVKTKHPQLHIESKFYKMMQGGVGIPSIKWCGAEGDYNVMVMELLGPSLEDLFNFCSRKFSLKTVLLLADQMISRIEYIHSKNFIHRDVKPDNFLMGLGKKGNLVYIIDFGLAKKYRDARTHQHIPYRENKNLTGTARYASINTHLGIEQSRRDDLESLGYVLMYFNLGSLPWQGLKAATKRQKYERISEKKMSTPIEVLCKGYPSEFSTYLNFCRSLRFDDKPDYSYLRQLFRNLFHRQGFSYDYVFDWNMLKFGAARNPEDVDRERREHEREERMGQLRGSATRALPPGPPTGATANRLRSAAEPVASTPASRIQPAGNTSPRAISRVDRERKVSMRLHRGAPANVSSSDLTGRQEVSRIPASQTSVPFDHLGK
CKI ε wild type, sequence (P49674 whole entry): as above
T1 sequence (P48730 whole entry): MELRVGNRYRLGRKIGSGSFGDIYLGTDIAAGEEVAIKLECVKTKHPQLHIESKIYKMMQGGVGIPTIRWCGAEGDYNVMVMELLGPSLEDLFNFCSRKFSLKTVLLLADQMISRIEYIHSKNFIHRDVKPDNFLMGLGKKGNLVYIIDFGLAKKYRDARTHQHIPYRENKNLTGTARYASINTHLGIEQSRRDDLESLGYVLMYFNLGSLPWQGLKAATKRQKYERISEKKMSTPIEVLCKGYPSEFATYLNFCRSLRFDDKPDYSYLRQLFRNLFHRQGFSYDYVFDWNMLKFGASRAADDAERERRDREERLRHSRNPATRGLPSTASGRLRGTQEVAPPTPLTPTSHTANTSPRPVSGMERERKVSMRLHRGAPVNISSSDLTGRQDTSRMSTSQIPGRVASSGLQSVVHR
CKIδ wild type, sequence (P48730 whole entry): as above

Structure (SMILES): Cn1cc(-c2ccnc3c2C(=O)OC3)c(-c2ccc(F)cc2)n1 [Example 1, 4-(3-(4-fluorophenyl)-1-methyl-1H-pyrazol-4-yl)furo[3,4-b]pyridin-5(7H)-one]
- pIC50 [1]: 8.10
- pEC50 [2]: 7.22
- pIC50 [3]: 7.57
- pEC50 [4]: 6.45

Structure (SMILES): CCN1Cc2nccc(-c3cn(C)nc3-c3ccc(F)cc3)c2C1=O [Example 34, 6-ethyl-4-[3-(4-fluorophenyl)-1-methyl-1H-pyrazol-4-yl]-6,7-dihydro-5H-pyrrolo[3,4-b]pyridin-5-one]
- pIC50 [1]: 7.91
- pEC50 [2]: 7.00
- pIC50 [3]: 7.21
- pEC50 [4]: 6.33

Structure (SMILES): Cn1cc(-c2ccnc3c2C(=O)NC3)c(-c2ccc(F)cc2)n1 [Example 4, 4-[3-(4-fluorophenyl)-1-methyl-1H-pyrazol-4-yl]-6,7-dihydro-5H-pyrrolo[3,4-b]pyridin-5-one]
- pIC50 [1]: 7.86
- pEC50 [2]: 6.91
- pIC50 [3]: 7.14
- pEC50 [4]: 6.16

Structure (SMILES): CC(C)C(=O)N1Cc2nccc(-c3cn(C)nc3-c3ccc(F)cc3)c2C1 [Example 18, 4-[3-(4-fluorophenyl)-1-methyl-1H-pyrazol-4-yl]-6-isobutyryl-6,7-dihydro-5H-pyrrolo[3,4-b]pyridine]
- pEC50 [2]: 7.40
- pEC50 [4]: 6.71

Structure (SMILES): Cn1cc(-c2ccnc3c2OCCNC3)c(-c2ccc(F)cc2)n1 [Example 7, 9-[3-(4-fluorophenyl)-1-methyl-1H-pyrazol-4-yl]-2,3,4,5-tetrahydropyrido[2,3-f][1,4]oxazepine]
- pIC50 [1]: 8.22
- pEC50 [2]: 7.41
- pIC50 [3]: 7.56
- pEC50 [4]: 6.54

Structure (SMILES): Cn1cc(-c2ccnc3c2CN(S(C)(=O)=O)C3)c(-c2ccc(F)cc2)n1 [Example 10, 4-[3-(4-fluorophenyl)-1-methyl-1H-pyrazol-4-yl]-6-(methylsulfonyl)-6,7-dihydro-5H-pyrrolo[3,4-b]pyridine]
- pIC50 [1]: 8.51
- pEC50 [2]: 7.87
- pIC50 [3]: 7.97
- pEC50 [4]: 7.20

Structure (SMILES): CCC(=O)N1Cc2nccc(-c3cn(C)nc3-c3ccc(F)cc3)c2C1 [Example 13, 4-[3-(4-fluorophenyl)-1-methyl-1H-pyrazol-4-yl]-6-propionyl-6,7-dihydro-5H-pyrrolo[3,4-b]pyridine]
- pEC50 [2]: 7.79
- pEC50 [4]: 6.91

Structure (SMILES): CCS(=O)(=O)N1Cc2nccc(-c3cn(C)nc3-c3ccc(F)cc3)c2C1 [Example 11, 6-(ethylsulfonyl)-4-[3-(4-fluorophenyl)-1-methyl-1H-pyrazol-4-yl]-6,7-dihydro-5H-pyrrolo[3,4-b]pyridine]
- pEC50 [2]: 6.99
- pEC50 [4]: 6.18

Structure (SMILES): Cn1cc(-c2ccnc3c2CN(C(=O)C2CCOCC2)C3)c(-c2ccc(F)cc2)n1 [Example 19, 4-[3-(4-fluorophenyl)-1-methyl-1H-pyrazol-4-yl]-6-(tetrahydro-2H-pyran-4-ylcarbonyl)-6,7-dihydro-5H-pyrrolo[3,4-b]pyridine]
- pEC50 [2]: 7.26
- pEC50 [4]: 6.25

Structure (SMILES): Cn1cc(-c2ccnc3c2CN(C(=O)CC2CC2)C3)c(-c2ccc(F)cc2)n1 [Example 15, 6-(cyclopropylacetyl)-4-[3-(4-fluorophenyl)-1-methyl-1H-pyrazol-4-yl]-6,7-dihydro-5H-pyrrolo[3,4-b]pyridine]
- pEC50 [2]: 7.90
- pEC50 [4]: 7.12

— patent US8536164B2, “Fused pyridine compounds as casein kinase inhibitors” (Pfizer Inc., priority 2010, dated 2013)
